This note sets out measurements from patent publication US9283222B2 (priority 2006, dated 2016).

This assay has as its target Recombinant Human Poly(ADP-Ribose) Polymerase (PARP), PARP-1 (Homo sapiens (Human), UniProt P09874). As to conditions: read-out: PARP-1 (Ki).
Setting [1] is: Table 1, text calls the values EC50s.

Molecules are shown by their SMILES. Like-named read-outs stand apart in the source and are kept apart here.

Sequence of Recombinant Human Poly(ADP-Ribose) Polymerase (PARP), PARP-1 (P09874 whole entry): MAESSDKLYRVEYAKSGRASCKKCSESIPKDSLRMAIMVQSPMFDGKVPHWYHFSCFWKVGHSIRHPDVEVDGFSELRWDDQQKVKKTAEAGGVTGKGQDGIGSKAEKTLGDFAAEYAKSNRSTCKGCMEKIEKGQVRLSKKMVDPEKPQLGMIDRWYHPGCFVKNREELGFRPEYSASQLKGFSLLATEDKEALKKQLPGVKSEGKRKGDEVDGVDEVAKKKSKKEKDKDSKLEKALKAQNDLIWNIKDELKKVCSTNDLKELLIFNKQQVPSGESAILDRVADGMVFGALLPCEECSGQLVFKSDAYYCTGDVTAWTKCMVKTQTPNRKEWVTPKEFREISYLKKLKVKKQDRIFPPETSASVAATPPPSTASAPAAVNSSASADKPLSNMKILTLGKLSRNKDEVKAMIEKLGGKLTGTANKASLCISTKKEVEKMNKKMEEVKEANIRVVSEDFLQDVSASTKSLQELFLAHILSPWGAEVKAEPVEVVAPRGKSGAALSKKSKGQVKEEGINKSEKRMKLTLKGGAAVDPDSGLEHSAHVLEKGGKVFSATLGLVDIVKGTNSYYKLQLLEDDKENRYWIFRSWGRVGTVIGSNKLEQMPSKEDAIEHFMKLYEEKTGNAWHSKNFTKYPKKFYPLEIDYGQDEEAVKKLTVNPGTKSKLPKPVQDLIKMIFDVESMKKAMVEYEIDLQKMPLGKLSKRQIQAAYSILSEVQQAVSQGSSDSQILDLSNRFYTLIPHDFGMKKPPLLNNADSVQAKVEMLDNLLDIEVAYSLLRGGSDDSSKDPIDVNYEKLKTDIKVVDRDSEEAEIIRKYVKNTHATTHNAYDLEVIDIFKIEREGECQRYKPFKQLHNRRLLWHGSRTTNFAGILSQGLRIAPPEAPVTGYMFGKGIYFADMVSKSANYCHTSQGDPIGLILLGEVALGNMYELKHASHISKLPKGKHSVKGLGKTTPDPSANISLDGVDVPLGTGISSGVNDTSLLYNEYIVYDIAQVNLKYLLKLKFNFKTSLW

What is called Ki is the dissociation constant of the complex between target and ligand, obtained from inhibition or displacement. Regarding `CCS(=O)(=O)N1CCN(C(=O)c2cc(Cc3n[nH]c(=O)c4c3NCCC4)ccc2F)CC1` [Example 594], under setting [1], the inhibitory constant (Ki) was found to be 0.7 nM.

As for `CC(=O)N(C)C1CCN(C(=O)c2cc(Cc3n[nH]c(=O)c4c3NCCC4)ccc2F)C1` (stereo not shown) [Example 595, N-(1-{2-fluoro-5-[(5-oxo-1,2,3,4,5,6-hexahydropyrido[2,3-d]pyridazin-8-yl)methyl]benzoyl}pyrrolidine-3-yl)-N-methylacetamide], the Ki under setting [1] was 6 nM.

Turning to `CCN(C(C)=O)C1CCN(C(=O)c2cc(Cc3n[nH]c(=O)c4c3NCCC4)ccc2F)C1` (stereo not shown) [Example 596, N-ethyl-N-(1-{2-fluoro-5-[(5-oxo-1,2,3,4,5,6-hexahydropyrido[2,3-d]pyridazin-8-yl)methyl]benzoyl}pyrrolidine-3-yl)acetamide], under setting [1], the Ki was 6 nM.

For `CCC(=O)N1CCN(C(=O)c2cc(Cc3n[nH]c(=O)c4c3NCCC4)ccc2F)CC1` [Example 597, 8-{4-fluoro-3-[(4-propionylpiperazin-1-yl)carbonyl]benzyl}-2,3,4,6-tetrahydropyrido[2,3-d]pyridazin-5(1H)-one], the Ki under setting [1] came out at 0.8 nM.

For the compound `COc1ccc(N2CCN(C(=O)c3cc(Cc4n[nH]c(=O)c5c4NCCC5)ccc3F)CC2)cc1` [Example 599, 8-(4-fluoro-3-{[4-(4-methoxyphenyl)piperazin-1-yl]carbonyl}benzyl)-2,3,4,6-tetrahydropyrido[2,3-d]pyridazin-5(1H)-one], the inhibition constant Ki under setting [1] was found to be 1.1 nM.

For the compound `COc1ccc(S(=O)(=O)N2CCN(C(=O)c3cc(Cc4n[nH]c(=O)c5c4NCCC5)ccc3F)CC2)cc1` [Example 600, 8-[4-fluoro-3-({4-[(4-methoxyphenyl)sulfonyl]piperazin-1-yl}carbonyl)benzyl]-2,3,4,6-tetrahydropyrido[2,3-d]pyridazin-5(1H)-one], the inhibition constant Ki under setting [1] amounted to 0.7 nM.

With `COc1ccc(C(=O)N2CCN(C(=O)c3cc(Cc4n[nH]c(=O)c5c4NCCC5)ccc3F)CC2)cc1` [Example 601, 8-(4-fluoro-3-{[4-(4-methoxybenzoyl)piperazin-1-yl]carbonyl}benzyl)-2,3,4,6-tetrahydropyrido[2,3-d]pyridazin-5(1H)-one], the Ki under setting [1] was 1.1 nM.

Turning to `O=C(c1cc(Cc2n[nH]c(=O)c3c2NCCC3)ccc1F)N1CCN(c2cccc(C(F)(F)F)c2)CC1` [Example 602, 8-[4-fluoro-3-({4-[3-(trifluoromethyl)phenyl]piperazin-1-yl}carbonyl)benzyl]-2,3,4,6-tetrahydropyrido[2,3-d]pyridazin-5(1H)-one], under setting [1], the Ki was 3 nM.

Take `CN(C)CCCN1CCCN(C(=O)c2cc(Cc3n[nH]c(=O)c4c3NCCC4)ccc2F)C1` [Example 604, 8-(3-{[3-[3-(dimethylamino)propyl]tetrahydropyrimidin-1(2H)-yl]carbonyl}-4-fluorobenzyl)-2,3,4,6-tetrahydropyrido[2,3-d]pyridazin-5(1H)-one]: the inhibition constant (Ki) under setting [1] turned out to be 15 nM.

In the case of `O=C1NC(Cc2ccccc2)C(=O)N1c1cc(Cc2n[nH]c(=O)c3c2NCCC3)ccc1F` (stereo not shown) [Example 605, 5-benzyl-3-{2-fluoro-5-[(5-oxo-1,2,3,4,5,6-hexahydropyrido[2,3-d]pyridazin-8-yl)methyl]phenyl}imidazolidine-2,4-dione], under setting [1], the inhibition constant Ki was determined as 32 nM.

In the case of `O=C(c1ccccc1)C1CCN(C(=O)c2cc(Cc3n[nH]c(=O)c4c3NCCC4)ccc2F)CC1` [Example 609, 8-{3-[(4-benzoylpiperidin-1-yl)carbonyl]-4-fluorobenzyl}-2,3,4,6-tetrahydropyrido[2,3-d]pyridazin-5(1H)-one], the inhibition constant Ki under setting [1] turned out to be 1.8 nM.

For the compound `COc1ccc(C(=O)C2CCN(C(=O)c3cc(Cc4n[nH]c(=O)c5c4NCCC5)ccc3F)CC2)cc1` [Example 610, 8-(4-fluoro-3-{[4-(4-methoxybenzoyl)piperidin-1-yl]carbonyl}benzyl)-2,3,4,6-tetrahydropyrido[2,3-d]pyridazin-5(1H)-one], under setting [1], the Ki was 1.7 nM.

As for `O=C(c1ccc2cc[nH]c2c1)N1CCN(C(=O)c2cc(Cc3n[nH]c(=O)c4c3NCCC4)ccc2F)CC1` [Example 611, 8-(4-fluoro-3-{[4-(1H-indol-6-ylcarbonyl)piperazin-1-yl]carbonyl}benzyl)-2,3,4,6-tetrahydropyrido[2,3-d]pyridazin-5(1H)-one], the Ki under setting [1] is 1.6 nM.

As to `O=C(OCc1ccccc1)N1CCN(C(=O)c2cc(Cc3n[nH]c(=O)c4c3NCCC4)ccc2F)CC1` [Example 613, benzyl 4-{2-fluoro-5-[(5-oxo-1,2,3,4,5,6-hexahydropyrido[2,3-d]pyridazin-8-yl)methyl]benzoyl}piperazine-1-carboxylate], the Ki under setting [1] is 1.8 nM.

For the compound `CC(C)(C)OC(=O)N1CCN(C(=O)c2cc(Cc3n[nH]c(=O)c4c3NCCC4)ccc2F)[C@H](c2ccccc2)C1` [Example 614, tert-butyl (3R)-4-{2-fluoro-5-[(5-oxo-1,2,3,4,5,6-hexahydropyrido[2,3-d]pyridazin-8-yl)methyl]benzoyl}-3-phenylpiperazine-1-carboxylate], the Ki under setting [1] was determined as 25 nM.

Take `C[C@@H]1CN(C(=O)c2ccccc2)CCN1C(=O)c1cc(Cc2n[nH]c(=O)c3c2NCCC3)ccc1F` [Example 616, 8-(3-{[(2R)-4-benzoyl-2-methylpiperazin-1-yl]carbonyl}-4-fluorobenzyl)-2,3,4,6-tetrahydropyrido[2,3-d]pyridazin-5(1H)-one]: the inhibition constant (Ki) under setting [1] is 2.3 nM.

Regarding `CN(C(=O)Nc1cc(Cc2n[nH]c(=O)c3c2CCCC3)ccc1F)c1ccccc1` [Example 618, N′-{2-fluoro-5-[(4-oxo-3,4,5,6,7,8-hexahydrophthalazin-1-yl)methyl]phenyl}-N-methyl-N-phenylurea], under setting [1], the inhibitory constant (Ki) amounted to 41 nM.

For the compound `CCN(C(C)=O)C1CCN(C(=O)c2cc(Cc3n[nH]c(=O)c4c3CCCC4)ccc2F)C1` (stereo not shown) [Example 619, N-ethyl-N-(1-{2-fluoro-5-[(4-oxo-3,4,5,6,7,8-hexahydrophthalazin-1-yl)methyl]benzoyl}pyrrolidine-3-yl)acetamide], the Ki under setting [1] is 4 nM.

With `COc1ccc(S(=O)(=O)N2CCN(C(=O)c3cc(Cc4n[nH]c(=O)c5c4CCCC5)ccc3F)CC2)cc1` [Example 620, 4-[4-fluoro-3-({4-[(4-methoxyphenyl)sulfonyl]piperazin-1-yl}carbonyl)benzyl]-5,6,7,8-tetrahydrophthalazin-1(2H)-one], under setting [1], the Ki came out at 2.2 nM.

In the case of `O=C(c1cc(Cc2n[nH]c(=O)c3c2CCCC3)ccc1F)N1CCN(c2cccc(C(F)(F)F)c2)CC1` [Example 621, 4-[4-fluoro-3-({4-[3-(trifluoromethyl)phenyl]piperazin-1-yl}carbonyl)benzyl]-5,6,7,8-tetrahydrophthalazin-1(2H)-one], under setting [1], the inhibition constant Ki was 8 nM.

Take `COc1ccc(C(=O)N2CCN(C(=O)c3cc(Cc4n[nH]c(=O)c5c4CCCC5)ccc3F)CC2)cc1` [Example 622, 4-(4-fluoro-3-{[4-(4-methoxybenzoyl)piperazin-1-yl]carbonyl}benzyl)-5,6,7,8-tetrahydrophthalazin-1(2H)-one]: the Ki under setting [1] amounted to 2.4 nM.

As to `COc1ccc(N2CCN(C(=O)c3cc(Cc4n[nH]c(=O)c5c4CCCC5)ccc3F)CC2)cc1` [Example 623, 4-(4-fluoro-3-{[4-(4-methoxyphenyl)piperazin-1-yl]carbonyl}benzyl)-5,6,7,8-tetrahydrophthalazin-1(2H)-one], under setting [1], the inhibitory constant (Ki) is 3 nM.

As to `O=C(c1cc(Cc2n[nH]c(=O)c3c2CCCC3)ccc1F)N1CCN(C(=O)C2CCCCC2)CC1` [Example 624, 4-(3-{[4-(cyclohexylcarbonyl)piperazin-1-yl]carbonyl}-4-fluorobenzyl)-5,6,7,8-tetrahydrophthalazin-1(2H)-one], the Ki under setting [1] was 2.5 nM.

Take `O=C(O)CNC(=O)Nc1cc(Cc2n[nH]c(=O)c3c2CCCC3)ccc1F` [Example 625, N-[({2-fluoro-5-[(4-oxo-3,4,5,6,7,8-hexahydrophthalazin-1-yl)methyl]phenyl}amino)carbonyl]glycine]: the inhibitory constant (Ki) under setting [1] was 21 nM.

For `CC(C)C[C@H](NC(=O)Nc1cc(Cc2n[nH]c(=O)c3c2CCCC3)ccc1F)C(=O)O` [Example 626, N-[({2-fluoro-5-[(4-oxo-3,4,5,6,7,8-hexahydrophthalazin-1-yl)methyl]phenyl}amino)carbonyl]leucine], the Ki was determined as 173 nM.

On to `C[C@H](NC(=O)Nc1cc(Cc2n[nH]c(=O)c3c2CCCC3)ccc1F)C(=O)O` [Example 627, N-[({2-fluoro-5-[(4-oxo-3,4,5,6,7,8-hexahydrophthalazin-1-yl)methyl]phenyl}amino)carbonyl]alanine], for which the Ki under setting [1] amounted to 85 nM.

Regarding `O=C(Nc1cc(Cc2n[nH]c(=O)c3c2CCCC3)ccc1F)N[C@@H](Cc1ccccc1)C(=O)O` [Example 628, N-[({2-fluoro-5-[(4-oxo-3,4,5,6,7,8-hexahydrophthalazin-1-yl)methyl]phenyl}amino)carbonyl]phenylalanine], the Ki under setting [1] amounted to 54 nM.

Turning to `O=C1CNC(=O)N1c1cc(Cc2n[nH]c(=O)c3c2CCCC3)ccc1F` [Example 630, 3-{2-fluoro-5-[(4-oxo-3,4,5,6,7,8-hexahydrophthalazin-1-yl)methyl]phenyl}imidazolidine-2,4-dione], under setting [1], the Ki was 0.7 nM.

On to `COc1ccccc1N1CCN(C(=O)c2cc(Cc3n[nH]c(=O)c4c3NCCC4)ccc2F)CC1` [Example 631, 8-(4-fluoro-3-{[4-(2-methoxyphenyl)piperazin-1-yl]carbonyl}benzyl)-2,3,4,6-tetrahydropyrido[2,3-d]pyridazin-5(1H)-one], for which the inhibition constant Ki under setting [1] worked out at 2.8 nM.

`O=C(c1cc(Cc2n[nH]c(=O)c3c2NCCC3)ccc1F)N1CCN(c2ncncn2)CC1` [Example 632, 8-(4-fluoro-3-{[4-(1,3,5-triazin-2-yl)piperazin-1-yl]carbonyl}benzyl)-2,3,4,6-tetrahydropyrido[2,3-d]pyridazin-5(1H)-one]: under setting [1], the Ki stood at 0.9 nM.

`CC1(C(=O)N2CCCN(C(=O)c3cc(Cc4n[nH]c(=O)c5c4CCCC5)ccc3F)CC2)CC1` [Example 635, 4-[4-fluoro-3-({4-[(1-methylcyclopropyl)carbonyl]-1,4-diazepan-1-yl}carbonyl)benzyl]-5,6,7,8-tetrahydrophthalazin-1(2H)-one]: the inhibition constant Ki under setting [1] turned out to be 1.8 nM.
